Patent US5032384A, “Compositions and method for the treatment of disease” (Block Drug Company, Inc., priority 1989, dated 1991)

Molecular target: cyclooxygenase cascade
Assay: Inhibition of PGE2 synthesis (assay of cyclooxygenase products, 14C arachidonate incorporation) in homogenate of inflamed human gingival tissue
Format: biochemical
Experimental: A large pool of inflamed human gingival tissue was obtained from patients with periodontitis who were undergoing routine periodontal surgery. The tissues were immediately stored in liquid nitrogen prior to use or were used fresh. The assay of cyclooxygenase products was performed as a modification of the assay of El Attar et al., J. Periodon. […] Pooled tissue was weighed and homogenized at 0°-4° C. with a Polytron® (Brinkman) homogenizer in a 0.2 M TRIS buffer, pH 8.0, at a final concentration of 20 mg/ml. After centrifugation for 10 minutes at 1200×g, the supernatant was divided into 3 ml aliquots for incubation in the presence or absence of a test compound.
Prostanoids were extracted as described by Powell, Methods in Eng., 86, 467 (1982) using a Sep-Pak-C18 cartridge from Waters Associates. The Sep-Pak was prepared by the sequential elution of 20 milliliters of ethanol and 20 milliliters of water. The sample was then adjusted to 15% ethanol, pH 3.0, with acetic acid and applied to the column. […]
These are readily separated and quantified using a 4.6×100 nm RP-18 Spheri-5u column from Brownle Labs. A Flow-One radioactivity monitor simultaneously measured radioactivity while monitoring elution at 192 nanometers.
The net incorporation of the 14C arachidonate was measured in the absence of the test substance in order to determine the maximum activity of the cyclooxygenase cascade.

Row | SMILES | IC50 value of alpha-tocopherol (inhibition of PGE2 synthesis) (change in presence of ketoprofen) | IC50 value of ketoprofen (inhibition of PGE2 synthesis) (change in presence of alpha-tocopherol)
1 | Cc1c(C)c2c(c(C)c1O)CCC(C)(CCCC(C)CCCC(C)CCCC(C)C)O2 (stereo not drawn) [alpha-tocopherol] | lowered | 
2 | CC(C(=O)O)c1cccc(C(=O)c2ccccc2)c1 (centres unmarked) [ketoprofen] |  | lowered
